In brackets after ≈: the same amount, converted by molar mass.

For this data set the following is noted: buffer; pH 7.4; 200.0 µM.
Turning to `CCn1cc(C(=O)OCC(=O)Nc2ccccc2OC(F)F)c(=O)c2ccc(C)nc21`, the kinetic solubility is 4.8 µg/mL (≈ 11.1 µM). Compound `CC1CCN(C(=O)COC(=O)c2ccc([N+](=O)[O-])o2)CC1` yielded a solubility (kinetic) of more than 44.4 µg/mL.

The compound `O=C(CSc1nc2ccccc2c2c1CCCC2)N1CCOCC1` came in with a kinetic solubility of 9.9 µg/mL (≈ 28.9 µM). As for `CCOC(=O)c1ccc(NC(=O)CSCCC(=O)O)cc1`, the figure is 45.1 µg/mL (≈ 145 µM); as for `O=C(NCc1ccccc1)NCC12CC3CC(CC(C3)C1)C2`, 1.3 µg/mL (≈ 4.36 µM); as for `S=C(NCc1ccc(Cl)cc1)NCc1ccco1`, 39.5 µg/mL (≈ 141 µM). As for `c1ccc2nc3c(nc2c1)OCC1CCCCN31` (stereo unspecified), the figure is 23.5 µg/mL (≈ 97.4 µM); as for `Cc1nccc(-c2ccc(-n3c(C)ccc3C)cc2)n1`, 33 µg/mL (≈ 125 µM). As for `Cc1noc(C)c1C(=O)OCC(=O)Nc1c(F)cccc1F`, the figure is 24 µg/mL (≈ 77.4 µM); as for `O=C1CN=C(c2ccc(Cl)cc2)c2oc3ccccc3c2N1`, less than 0.3 µg/mL; as for `CC(NC(=O)c1ccncc1)c1ccc(Cl)cc1Cl` (stereo unspecified), more than 44.3 µg/mL. `O=S(=O)(c1ccc(Cl)cc1)N1CCCC(C(F)(F)F)C1` (stereo unspecified) showed a kinetic solubility of 1 µg/mL (≈ 3.05 µM). Turning to `O=[N+]([O-])c1cnn2cc(Br)cnc12`, the solubility (kinetic) was more than 36.5 µg/mL. Turning to `O=C1CN(C(=O)/C=C/c2ccc(Br)cc2)CCN1`, the kinetic solubility is 41.8 µg/mL (≈ 135 µM). On to `O=C(Nc1ccc(F)cc1F)c1ccc(S(=O)(=O)NCc2ccco2)cc1`, for which the solubility (kinetic) came to 10.5 µg/mL (≈ 26.8 µM). Turning to `Fc1cc(F)nc(NCc2ccccc2)n1`, the solubility (kinetic) was found to be 12.2 µg/mL (≈ 55.2 µM). This solubility kinetic and that of the compound before are within 1.5-fold of each other.

With `COc1ccc(NC(=O)CN2C(=O)NC3(CCCc4ccccc43)C2=O)c(OC)c1` (stereo unspecified), the kinetic solubility was more than 61.4 µg/mL. The value for `CCOC(=O)c1c(NC(=O)c2cc(C)on2)c2cc([N+](=O)[O-])ccc2n1C` was 1.6 µg/mL (≈ 4.3 µM). As for `CCOC(=O)Cn1cnc2scc(-c3ccc(C)cc3)c2c1=O`, the figure is 38.2 µg/mL (≈ 116 µM). As for `Cc1ccc(NS(=O)(=O)c2cccs2)nc1`, the figure is more than 38.1 µg/mL; as for `Cn1c(=O)c2c(ncn2CCC(=O)N/N=C/c2ccncc2)n(C)c1=O`, more than 53.3 µg/mL.

With `CC(C)(C)c1ccc(S(=O)(=O)N2CCNC(=O)C2)cc1`, the kinetic solubility was determined as 42 µg/mL (≈ 142 µM).

The compound `Nc1ccnc(=O)[nH]1` registered a kinetic solubility of more than 16.7 µg/mL. `O=[N+]([O-])c1cc(C(F)(F)F)ccc1NC1CCN(Cc2ccccc2)CC1`: the kinetic solubility is 2.6 µg/mL (≈ 6.85 µM). The value for `Cl.O=C(OCCN1CCCCC1)c1cccc(F)c1` was more than 43.2 µg/mL; that for `Br.Cn1c(=N)n(CC(=O)c2ccc(F)cc2)c2ccccc21` was more than 54.6 µg/mL.

Compound `O=C(COC(=O)c1ccc(Cl)c(S(=O)(=O)N2CCCC2)c1)NCc1ccccc1` had a solubility (kinetic) of 26.1 µg/mL (≈ 59.7 µM). As for `Cc1ccc2c(CN(C)Cc3cccc(Cl)c3)cc(=O)oc2c1C`, the figure is less than 0.7 µg/mL; as for `Cl.NCCSC1CC(=O)N(c2ccc(Cl)c(Cl)c2)C1=O` (stereo unspecified), 32.8 µg/mL. As for `CN1C(=O)c2cccc3c(S(=O)(=O)NCCc4ccccc4)ccc1c23`, the figure is less than 0.4 µg/mL; as for `O=[N+]([O-])c1ccc(SCCc2cc[nH+]cc2)cc1.[Cl-]`, 36.5 µg/mL. The value for `Clc1ccc(-c2csc(N3CCCCCC3)n2)cc1` was less than 0.3 µg/mL. In turn, `Nc1ncnc(N2CCc3ccccc32)c1[N+](=O)[O-]` came in with a kinetic solubility of 1.8 µg/mL (≈ 7 µM). As for `CC(O)CNc1nc2c(c(=O)n(Cc3ccccc3)c(=O)n2C)n1C` (stereo unspecified), the solubility (kinetic) is more than 51.5 µg/mL. Consider `COc1ccc(S(=O)(=O)NC2CCCC2)cc1Cl`, for which the solubility (kinetic) was more than 43.5 µg/mL.

`Cc1nn(CC(=O)NC2(C#N)CCCCC2)c(C)c1[N+](=O)[O-]` returned a kinetic solubility of more than 45.8 µg/mL.

Take `O=C(Nc1ccc(Br)cn1)C1CCN(S(=O)(=O)c2cccs2)CC1`: the kinetic solubility is less than 0.3 µg/mL.

`Cc1ccc(OCC(O)CNCc2ccccc2)cc1C` (stereo unspecified) came in with a solubility (kinetic) of 36.2 µg/mL (≈ 127 µM). The value for `CC1CC(C)CN(C(=O)COc2cccnc2[N+](=O)[O-])C1` (stereo unspecified) was more than 44 µg/mL; that for `Cc1ccccc1-c1noc(CNC(=O)COc2ccccc2)n1` was 7.7 µg/mL (≈ 23.8 µM); that for `Cc1ccc(C2CC(=O)C=C(NCc3ccccc3)C2)cc1` (stereo unspecified) was 12.7 µg/mL (≈ 43.6 µM).

For orientation: kinetic solubility means solubility judged after dilution from a stock solution rather than from solid.

The values above are taken from PubChem BioAssay AID1996.
